The conditions of data set [1]: weak acid of low-pH buffering system; first value; cited from earlier work.
The nature of data set [2]: Masking of ferric ion interference in the gadolinium-arsenazo III assay. Conditions: 70 mM HDMP in reagent. On the procedure: In one aspect of the invention, the reagent includes HDMP. For example, a reagent of the invention can contain about 10 to about 2000 mM HDMP. In various aspects, the reagent contains about 10 to about 800 mM HDMP, and more particularly about 70 mM HDMP. […] Higher levels of HDMP may be selected to further remove calcium and iron interference based upon analytical sensitivity, matrix effects (e.g., diet, drugs, toxicants, […] icterus), solubility, sample quality (e.g., hemolysis) and storage stability. […] The ferric sulfate increased the net absorbance of the solution ([…] nm minus A750 nm). This amount of ferric ion is approximately 10 times the amount that would be contributed by 0.07 mL of a normal canine serum sample.

Data set [3] is described as follows: Effect of masking agent on gadolinium response in the arsenazo III assay. Conditions: optimal amount of HDMP, pH 2.4. The text has this: In general, chelating agents, including EDTA, EGTA, TTHA, EDTPO, phenanthroline, and 8-hydroxyquinoline have a greater affinity for rare earth metals, such as gadolinium, than for calcium. HDMP, however, is unusual in its ability to bind calcium preferentially over gadolinium. […] This essentially, although not completely, eliminates the interference by calcium with the method of the invention. […] In one aspect of the invention, the reagent includes HDMP. For example, a reagent of the invention can contain about 10 to about 2000 mM HDMP. In various aspects, the reagent contains about 10 to about 800 mM HDMP, and more particularly about 70 mM HDMP. […] Higher levels of HDMP may be selected to further remove calcium and iron interference based upon analytical sensitivity, matrix effects (e.g., diet, drugs, toxicants, […] icterus), solubility, sample quality (e.g., hemolysis) and storage stability. […] Commercial […]®, Berlex Laboratories, Wayne N.J.) ranging from 50-400 μM was added to 0.07 mL of canine serum. The canine serum was added to the arsenazo III reagent in varying amounts. […] This is obtained by subtracting the absorbance of each solution at 750 nm from its absorbance at 654 nm, reducing interference from wavelength-independent absorbance due to sample turbidity.

The nature of data set [4]: Masking of calcium interference in the gadolinium-arsenazo III assay. The text has this: For instance, while calcium interference decreases exponentially with pH, it is not completely eliminated. In addition, the affinity of gadolinium for arsenazo dye decreases with pH, reducing both linearity and sensitivity of gadolinium response. In one aspect, the method of the invention allows for a pH window where the pH is high enough to allow highly efficient measurement of gadolinium chelate while reducing calcium interference by 99% relative to its maximal binding to Arsenazo at pH 6. Nonetheless, even within this optimally selective pH window, interference from both calcium and ferric ions is substantial. To remedy this persistent residual calcium interference, in another aspect of the invention, the compound HDMP, commonly used as an oral iron chelator for treatment of thalassemia (iron overload), is added to the reagent of the invention to effectively mask interference from both calcium and ferric ions without substantially reducing gadolinium assay response. In general, chelating agents, including EDTA, EGTA, TTHA, EDTPO, phenanthroline, and 8-hydroxyquinoline have a greater affinity for rare earth metals, such as gadolinium, than for calcium. […] This is obtained by subtracting the absorbance of each solution at 750 nm from its absorbance at 654 nm, reducing interference from wavelength-independent absorbance due to sample turbidity.

SMILES strings stand for the structures. Where a SMILES comes first, the peptide text is derived from it.

For `NCC(=O)NCC(=O)O` [Diglycine] (H-Gly-Gly-OH), the “Acid pKa” value in data set [1] is on record as 3.14.

On to `O=C1CC(=O)NC(=O)N1` [Barbituric acid], for which the “Acid pKa” value in data set [1] was 4.04.

For `Cc1c(O)c(=O)ccn1C` [HDMP, 3-hydroxy-1,2-dimethyl-4(1H)-pyridone], the ferric ion masked result in data set [2] is listed as “greater than 95%”. The “reduction in gadolinium signal” value in data set [3] is “less than 10%”. The calcium masked in data set [4] (70 mM HDMP in reagent) was found to be 87%. For the same compound, the “reduction in calcium interference” value in data set [4] (optimal amount of HDMP, pH 2.4) is “greater than 90%”.

Source of the values: patent US20080085563A1, “Detection of Gadolinium Chelates” (IDEXX LABORATORIES, INC., priority 2006, published 2008).
